Experimental data published in the supplement of paper PMC10307832.

Tests used:
Test in all cases: relative viability (nuclei count vs DMSO), 5 days (fraction); higher = more cells survive
XMD8-85 = compound: CN1CCN(CC1)C2=CC(=C(C=C2)NC3=NC=C4C(=N3)N(C5=CC=CC=C5C(=O)N4C)C)OC [XMD8-85]
In short: (§1)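 Lung cancer cell lines were seeded into 1536-well plates, kept overnight at 37 °C and pinned with five library-drug doses (not always all listed) spaced by √10. After 5 days, nuclei were Hoechst-stained, imaged at 4× and counted with MetaXpress. Viability is treated-well nuclei over vehicle-well nuclei, taken as a median across plates. Plates needed control CV below 25% and at least one doubling.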

4EGI-1 = compound: O=C(O)C(Cc1ccccc1[N+](=O)[O-])=NNc1nc(-c2ccc(Cl)c(Cl)c2)cs1 (mixture of isomers) [4EGI-1]
In short: as §1

XMD8-85 + Alpelisib = compound: CN1CCN(CC1)C2=CC(=C(C=C2)NC3=NC=C4C(=N3)N(C5=CC=CC=C5C(=O)N4C)C)OC [XMD8-85] + Cc1nc(NC(=O)N2CCC[C@H]2C(N)=O)sc1-c1ccnc(C(C)(C)C(F)(F)F)c1 [Alpelisib] (partner 2 µM)
In short: (§2)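 Nuclei were stained with Hoechst during a one-step fixation (final 0.05% Triton X-100, 1% formaldehyde, 1 ug/ml Hoechst) carried out 5 days after dosing, then counted on 4× images. The cells, lung cancer lines in 1536-well plates, had been dosed by pin tool the day after seeding with one drug alone or a fixed anchor-drug dose plus five library-drug doses (not always all listed) in √10 steps. Relative viability is the nuclei count in treated wells divided by that in vehicle wells, and each value is the median of duplicate plates.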

4EGI-1 + Pemetrexed = compound: O=C(O)C(Cc1ccccc1[N+](=O)[O-])=NNc1nc(-c2ccc(Cl)c(Cl)c2)cs1 (mixture of isomers) [4EGI-1] + Nc1nc2[nH]cc(CCc3ccc(C(=O)N[C@@H](CCC(=O)O)C(=O)O)cc3)c2c(=O)[nH]1 [Pemetrexed] (partner 0.2 µM)
In short: as §2

Row | Cell Line | relative viability (XMD8-85; 0.08 µM) | relative viability (XMD8-85; 0.253 µM) | relative viability (XMD8-85; 0.8 µM) | relative viability (XMD8-85; 2.53 µM) | relative viability (XMD8-85; 8 µM) | relative viability (4EGI-1; 0.5 µM) | relative viability (4EGI-1; 1.581 µM) | relative viability (4EGI-1; 5 µM) | relative viability (4EGI-1; 15.81 µM) | relative viability (4EGI-1; 50 µM) | relative viability (XMD8-85 + Alpelisib; first compound 0.08 µM) | relative viability (XMD8-85 + Alpelisib; first compound 0.253 µM) | relative viability (XMD8-85 + Alpelisib; first compound 0.8 µM) | relative viability (XMD8-85 + Alpelisib; first compound 2.53 µM) | relative viability (XMD8-85 + Alpelisib; first compound 8 µM) | relative viability (4EGI-1 + Pemetrexed; first compound 0.5 µM) | relative viability (4EGI-1 + Pemetrexed; first compound 1.581 µM) | relative viability (4EGI-1 + Pemetrexed; first compound 5 µM) | relative viability (4EGI-1 + Pemetrexed; first compound 15.81 µM) | relative viability (4EGI-1 + Pemetrexed; first compound 50 µM)
1 | NCI-H1975 | 0.989 | 0.92 | 0.98 | 0.962 | 0.638 | 1.02 | 0.904 | 1 | 0.996 | 0.768 | 0.578 | 0.649 | 0.656 | 0.727 | 0.372 | 0.298 | 0.274 | 0.287 | 0.283 | 0.21
2 | NCI-H1703 | 0.934 | 1.06 | 1.06 | 0.967 | 0.822 | 1.34 | 1.08 | 1.12 | 0.928 | 0.571 | 0.305 | 0.433 | 0.337 | 0.401 | 0.265 |  |  |  |  | 
3 | 201T | 1 | 0.983 | 0.986 | 0.978 | 0.757 | 1.05 | 0.955 | 1.05 | 0.965 | 0.806 | 0.966 | 1.05 | 1 | 1.08 | 0.901 | 0.338 | 0.368 | 0.387 | 0.334 | 0.348
4 | LK-2 | 0.97 | 1.08 | 0.928 | 0.67 | 0.616 | 1.11 |  | 1.29 | 1.08 | 0.854 | 1.16 | 1.04 | 1.12 | 1.26 | 0.694 | 0.303 |  | 0.336 | 0.289 | 0.179
5 | HCC-78 | 1.14 | 1.02 | 0.848 | 0.92 | 0.512 | 1.09 | 0.739 | 0.994 | 0.884 | 0.872 | 0.384 | 0.405 | 0.39 | 0.3 | 0.285 | 0.911 |  | 0.916 | 0.892 | 0.972
6 | EMC-BAC-2 | 1.04 | 1.03 | 0.956 | 1.01 | 0.778 | 1.07 |  | 1.07 | 0.976 | 0.538 | 0.74 | 0.739 | 0.752 | 0.733 | 0.72 | 0.418 |  | 0.466 | 0.482 | 0.323
7 | NCI-H2023 | 0.837 | 1.02 | 0.99 | 1 | 0.559 | 1.27 |  | 1.1 | 0.376 | 0.129 | 0.488 | 0.623 | 0.66 | 0.664 | 0.334 | 0.263 |  | 0.223 | 0.164 | 0.101
8 | IA-LM | 0.84 | 0.923 | 0.872 | 0.723 | 0.489 | 1.03 | 0.848 | 0.923 | 0.152 | 0.0847 | 0.613 |  | 0.66 | 0.77 | 0.225 |  |  |  |  | 
9 | SW 900 | 0.791 | 1.04 | 0.759 | 0.861 | 0.465 | 1.05 | 0.755 | 0.89 | 0.642 | 0.213 |  |  |  |  |  | 0.496 | 0.513 | 0.485 | 0.405 | 0.136
10 | NCI-H522 | 0.94 | 1.11 | 0.947 | 1.09 | 0.677 | 1.01 | 0.878 | 0.99 | 0.922 | 0.69 |  |  |  |  |  | 0.948 | 0.981 | 1.07 | 1.06 | 0.718
11 | EBC-1 | 0.944 | 1.06 | 0.937 | 0.816 | 0.386 | 1.11 | 1.05 | 1.11 | 0.726 | 0.296 | 0.871 | 0.94 |  | 0.694 | 0.336 |  |  |  |  | 
12 | ChaGo-K-1 | 0.953 | 0.969 | 0.917 | 1.06 | 0.959 | 0.976 | 0.762 | 1.03 | 0.861 | 0.616 |  |  |  |  |  | 0.26 | 0.266 | 0.269 | 0.267 | 0.265
13 | NCI-H1623 | 0.906 | 0.891 | 0.88 | 0.986 | 0.833 | 1.17 | 0.85 | 1.07 | 0.783 | 0.843 |  |  |  |  |  |  |  |  |  | 
14 | NCI-H1650 | 0.974 | 0.874 | 0.946 | 0.889 | 0.297 | 1.12 |  | 1.03 | 0.419 | 0.223 |  |  |  |  |  | 0.369 |  | 0.412 | 0.356 | 0.313
15 | NCI-H1648 | 0.827 | 0.73 | 0.7 | 0.829 | 0.869 | 0.831 | 0.958 | 0.968 | 0.808 | 0.509 |  |  |  |  |  | 0.728 | 0.782 | 0.745 | 0.643 | 0.689
16 | NCI-H2342 | 0.873 | 1.07 | 1.02 | 1.02 | 1.06 | 1.13 | 0.889 | 0.989 | 1.03 | 0.869 |  |  |  |  |  | 0.884 | 0.723 | 0.813 | 0.978 | 0.702
17 | Calu-6 | 1.02 | 0.962 | 1.08 | 0.96 | 0.834 | 1.03 | 0.887 | 1.1 | 0.951 | 0.618 | 1.02 | 0.985 | 1.05 | 1.08 | 0.865 |  |  |  |  | 
18 | ABC-1 | 0.879 | 0.87 | 1.17 | 0.952 | 0.517 | 1.08 | 0.819 | 1.1 | 0.525 | 0.195 | 1.03 | 1.15 | 1.37 | 1.01 |  |  |  |  |  | 
19 | NCI-H727 | 0.883 | 0.9 | 0.958 | 0.713 | 0.62 | 1.06 | 0.991 | 0.909 | 0.795 | 0.59 | 0.759 | 0.541 | 0.546 | 0.534 | 0.304 |  |  |  |  | 
